Laboratory results published in patent US20220106595A1, “ANTIBACTERIAL ANTISENSE AGENTS” (priority 2018, published 2022).

What was measured:
[1] = system: A. baumannii (ATCC19606); experiment: Neutropenic lung infection model in mice, A. baumannii (ATCC19606); assay type: in vivo; conditions: FIG. 7
[2] = system: E. coli (ATCC BAA-2340); experiment: Urinary tract infection mouse model, resistance strain E. coli (ATCC BAA-2340); assay type: in vivo; conditions: 48 h post treatment
Method: Efficacy of PED-011 Against E. coli (ATCC BAA-2340) in the Urinary Tract Infection Mouse Model; Challenge with a Resistance Strain
(§1) Female BALB/c mice were infected trans-urethrally with ˜5×10^8 CFU/animal E. coli (ATCC BAA-2340). Twenty-four hours post infection animals were treated twice daily (Q12 h) orally with ciprofloxacin at 30 mg/kg and with single IV doses of PED-011 at 10 and 30 mg/kg (u.i.d). Ten animals from each group were terminated at 48 h post treatment; bladder and kidneys were collected to determine the bacterial load.
(§2) The vehicle for Ciprofloxacin was 0.25% of Carboxy Methyl Cellulose (CMC) (w/v) and PBS was used for PED-011. PED-011 was dissolved in PBS at 2 & 6 mg/mL. At twenty-four hour post infection, animals were be treated with the first oral dose of ciprofloxacin and the single dose of PED-011 (10 and 30 mg/kg, IV, single bolus dose, 5 ml/kg dose volume). Animals received further doses of oral ciprofloxacin as per the dosing schedule.

[3] = system: E. coli (ATCC25922); experiment: Urinary tract infection mouse model, E. coli (ATCC25922); assay type: in vivo; conditions: 48 h post treatment
Method: Efficacy of PED-011 Against E. coli (ATCC25922) in the Urinary Tract Infection Mouse Model
as §1, with “trans-ureth rally” for “trans-urethrally”, “˜ 5×10^8” for “˜5×10^8”, “25922). Four” for “BAA-2340). Twenty-four”, “treatment,” for “treatment;”
as §2, with “four hours” for “twenty-four hour”, “were” for “were be”

[4] = system: E. coli (CFT073, ATCC®700928™); experiment: Urinary tract infection mouse model, uropathogenic E. coli (CFT073, ATCC 700928); assay type: in vivo
Method: Efficacy of PED-011 Against E. coli (CFT073, ATCC®700928™) in the Urinary Tract Infection Mouse Model; Challenge with a Uropathogenic Strain
as §1, with “E. coli (CFT073, ATCC®700928™). Twenty-four hours” for “E. coli (ATCC BAA-2340). Twenty-four hours”, “PED-011 at 3, 10 and” for “PED-011 at 10 and”, “h post treatment (72 h post infection); bladder and” for “h post treatment; bladder and”
as §2, with “PBS at 0.6, 2 &” for “PBS at 2 &”, “At twenty-four hours post infection,” for “At twenty-four hour post infection,”, “animals were treated with” for “animals were be treated with”

[5] = Log D determination (shake-flask, PBS/1-octanol); assay type: physicochemical; conditions: PBS pH 7.4 / 1-octanol
Method: (v) Log D Determinations:
Log D(PBS) determinations is performed in 96 well microtitre plates using a miniaturised “shake-flask” method. […] The plates are then capped and mixed vigorously for 1 hour on a microtitre plate shaker, after which they were left to stand, allowing the PBS and octanol phases to separate.
Where AUCstd and AUCpbs are the peak areas from the standard and test ion chromatograms respectively.

PED-012: Linker-6 coupled to PMO PED-2, TCA AAT GAG GC (Sequence ID 91, ftsZ) (TCAAATGAGGC; all phosphorodiamidate morpholino (PMO); Linker-6 conjugate attached at 3' morpholino end, 5' end group not given here, further chemistry not fully specified)
antibacterial activity in lung vs vehicle control at 52 h PI ([1]; 10 mg/kg, IN, single dose, p>0.05): not significantly effective | antibacterial activity in lung vs 52 h vehicle control ([1]; 30 mg/kg, IN, single dose, p<0.05): significant antibacterial activity

PED-011: Linker-6 (Sugar-L-Ala-NH(CH2)3CO) coupled to PMO PED-1, CTT CGA TAG TG (Sequence ID 57, AcpP) (CTTCGATAGTG; all phosphorodiamidate morpholino (PMO); Linker-6 sugar-L-Ala conjugate attached, position not given here, further chemistry not fully specified)
antibacterial activity in bladder vs 4 h and vehicle control ([2]; 10 mg/kg, IV, single dose, FIG. 5): not significantly effective | antibacterial activity in kidneys vs 4 h PI control and vehicle control ([2]; 10 mg/kg, IV, single dose, p<0.05, FIG. 6): significant antibacterial activity | antibacterial activity in bladder vs 24 h PI control and vehicle control ([2]; 30 mg/kg, IV, single dose, FIG. 5): a reduction but not statistically significant antibacterial activity | antibacterial activity in kidneys vs 24 h PI control and vehicle control ([2]; 30 mg/kg, IV, single dose, p<0.05, FIG. 6): significant antibacterial activity | antibacterial activity in bladder vs 4 h and vehicle control ([3]; 10 mg/kg, IV, single dose, FIG. 1): not significantly effective | antibacterial activity in kidneys vs 4 h PI control and vehicle control ([3]; 10 mg/kg, IV, single dose, p<0.05, FIG. 2): significant antibacterial activity | antibacterial activity in bladder vs 4 h PI control and vehicle control ([3]; 30 mg/kg, IV, single dose, p<0.05, FIG. 1): significant antibacterial activity | antibacterial activity in kidneys vs 4 h PI control and vehicle control ([3]; 30 mg/kg, IV, single dose, p<0.05, FIG. 2): significant antibacterial activity | antibacterial effect in kidney compared to vehicle control ([4]; 30 mg/kg, IV, 1 dose, p<0.05, FIG. 4): significant effect | mean bacterial counts in bladder ([4]; 3, 10 and 30 mg/kg, IV, 1 dose, FIG. 3): dose dependent mean reduction in bacterial counts | antibacterial effect in kidney compared to vehicle control ([4]; 3, 10 and 30 mg/kg, IV, 1 dose, FIG. 4): dose dependent antibacterial effect | antibacterial effect in bladder wrt vehicle control ([4]; 3, 10 and 30 mg/kg, IV, 1 dose, p>0.05, FIG. 3): did not show significant antibacterial effect | Log D7.4 [5]: 0.74

O=C(O)c1cn(C2CC2)c2cc(N3CCNCC3)c(F)cc2c1=O [Ciprofloxacin, reference compound]
antibacterial effect in lung vs 52 h vehicle control ([1]; 10 mg/kg, po, Q12 h, p<0.05): significant antibacterial effect | antibacterial effect in bladder vs 24 h control and vehicle control ([2]; 30 mg/kg, p.o., Q12 h, p<0.05, FIG. 5): significant antibacterial effect | antibacterial effect in kidneys vs 24 h control and vehicle control ([2]; 30 mg/kg, p.o., Q12 h, p<0.05, FIG. 6): significant antibacterial effect | antibacterial effect in bladder (Log10 CFU/g) vs 4 h control and vehicle control ([3]; 30 mg/kg, p.o., Q12 h, p<0.05, FIG. 1): significant antibacterial effect | antibacterial effect in kidneys (Log10 CFU/g) vs 4 h control and vehicle control ([3]; 30 mg/kg, p.o., Q12 h, p<0.05, FIG. 2): significant antibacterial effect | bactericidal activity in bladder wrt 24 h PI control and vehicle control ([4]; 30 mg/kg, p.o., b.i.d. Q12h, 72 h post infection, FIG. 3): significant (p<0.05) bactericidal activity | bactericidal activity in kidney wrt 24 h PI control and vehicle control ([4]; 30 mg/kg, p.o., b.i.d. Q12h, 72 h post infection, p<0.05, FIG. 4): significant bactericidal activity
